Values quoted from earlier work in US7815920B2, “Method of preparing an antigen-containing formulation” (Allergy Therapeutics (UK) Ltd, priority 1998, dated 2010).

details: not given

In the case of `N[C@@H](CS)C(=O)O` [cysteine], the “solubility in water (in words)” value is listed as “quite soluble in water”.
In the case of `NCCCC[C@H](N)C(=O)O` [lysine], the “solubility in water (in words)” value is given as “quite soluble in water”.

same assay, conditions: at 25° C.

Point of comparison: `NC(=O)C[C@H](N)C(=O)O` [asparagine], “Water Solubility” value 3.5 g/100 ml H2O. Against it:
- CC(C)[C@H](N)C(=O)O [valine] — higher, 8.9 g/100 ml H2O
- CSCC[C@H](N)C(=O)O [methionine] — lower, 3.4 g/100 ml H2O
- CC[C@H](C)[C@H](N)C(=O)O [isoleucine] — higher, 4.1 g/100 ml H2O
- NC(=O)CC[C@H](N)C(=O)O [glutamine] — higher, 3.7 g/100 ml H2O
- N[C@@H](Cc1ccccc1)C(=O)O [phenylalanine] — lower, 3.0 g/100 ml H2O
- CC(C)C[C@H](N)C(=O)O [leucine] — lower, 2.4 g/100 ml H2O
- N[C@@H](Cc1c[nH]c2ccccc12)C(=O)O [tryptophan] — lower, 1.1 g/100 ml H2O
- N[C@@H](Cc1c[nH]cn1)C(=O)O [histidine] — higher, 4.2 g/100 ml H2O
- C[C@H](N)C(=O)O [alanine] — higher, 16.7 g/100 ml H2O

For `N[C@@H](CS)C(=O)O` [cysteine], the “Water Solubility” value is given as “very”.
In the case of `NCCCC[C@H](N)C(=O)O` [lysine], the “Water Solubility” value is listed as “very”.
